Measurements as given in ChEMBL document CHEMBL4004803, “Syntheses and antibacterial activity of soluble 9-bromo substituted indolizinoquinoline-5,12-dione derivatives” (Eur J Med Chem, 2017).
Values after ≈ are worked out from the molar mass of the structure shown.

Experiments:
Staphylococcus aureus [1] = test: Antibacterial activity against methicillin-resistant Staphylococcus aureus 518036 clinical isolate after 20 to 24 hrs by two-fold microdilution method; type: functional
Staphylococcus aureus [2] = test: Antibacterial activity against methicillin-resistant Staphylococcus aureus 221014 clinical isolate after 20 to 24 hrs by two-fold microdilution method; type: functional
Staphylococcus aureus [3] = test: Antibacterial activity against methicillin-resistant Staphylococcus aureus 130031 clinical isolate after 20 to 24 hrs by two-fold microdilution method; type: functional
Staphylococcus aureus [4] = test: Antibacterial activity against methicillin-resistant Staphylococcus aureus 122820-2 clinical isolate after 20 to 24 hrs by two-fold microdilution method; type: functional
Staphylococcus aureus [5] = test: Antibacterial activity against methicillin-resistant Staphylococcus aureus 110910-2 clinical isolate after 20 to 24 hrs by two-fold microdilution method; type: functional
Staphylococcus aureus [6] = test: Antibacterial activity against methicillin-resistant Staphylococcus aureus 122710-2 clinical isolate after 20 to 24 hrs by two-fold microdilution method; type: functional
Staphylococcus aureus [7] = test: Antibacterial activity against methicillin-resistant Staphylococcus aureus 531026 clinical isolate after 20 to 24 hrs by two-fold microdilution method; type: functional
Staphylococcus aureus [8] = test: Antibacterial activity against methicillin-resistant Staphylococcus aureus 1215028 clinical isolate after 20 to 24 hrs by two-fold microdilution method; type: functional
Staphylococcus aureus [9] = test: Antibacterial activity against methicillin-resistant Staphylococcus aureus 1106003 clinical isolate after 20 to 24 hrs by two-fold microdilution method; type: functional
Staphylococcus aureus [10] = test: Antibacterial activity against methicillin-resistant Staphylococcus aureus 1216052 clinical isolate after 20 to 24 hrs by two-fold microdilution method; type: functional
Staphylococcus aureus [11] = test: Antibacterial activity against methicillin-resistant Staphylococcus aureus 519028 clinical isolate after 20 to 24 hrs by two-fold microdilution method; type: functional
Staphylococcus aureus [12] = test: Antibacterial activity against methicillin-resistant Staphylococcus aureus 921026 clinical isolate after 20 to 24 hrs by two-fold microdilution method; type: functional
Staphylococcus aureus [13] = test: Antibacterial activity against methicillin-resistant Staphylococcus aureus 110432 clinical isolate after 20 to 24 hrs by two-fold microdilution method; type: functional
Staphylococcus aureus [14] = test: Antibacterial activity against methicillin-resistant Staphylococcus aureus 1026021 clinical isolate after 20 to 24 hrs by two-fold microdilution method; type: functional
Staphylococcus aureus [15] = test: Antibacterial activity against methicillin-resistant Staphylococcus aureus 829034 clinical isolate after 20 to 24 hrs by two-fold microdilution method; type: functional
Staphylococcus aureus [16] = test: Antibacterial activity against methicillin-resistant Staphylococcus aureus 1107027 clinical isolate after 20 to 24 hrs by two-fold microdilution method; type: functional
Staphylococcus aureus [17] = test: Antibacterial activity against methicillin-resistant Staphylococcus aureus 1101016 clinical isolate after 20 to 24 hrs by two-fold microdilution method; type: functional
Staphylococcus aureus [18] = test: Antibacterial activity against methicillin-resistant Staphylococcus aureus 215073 clinical isolate after 20 to 24 hrs by two-fold microdilution method; type: functional
Staphylococcus aureus [19] = test: Antibacterial activity against methicillin-resistant Staphylococcus aureus 305026 clinical isolate after 20 to 24 hrs by two-fold microdilution method; type: functional
Staphylococcus aureus [20] = test: Antibacterial activity against methicillin-resistant Staphylococcus aureus 1128040 clinical isolate after 20 to 24 hrs by two-fold microdilution method; type: functional
Staphylococcus aureus [21] = test: Antibacterial activity against methicillin-resistant Staphylococcus aureus GLH14 clinical isolate after 20 to 24 hrs by two-fold microdilution method; type: functional
Staphylococcus aureus [22] = test: Antibacterial activity against methicillin-resistant Staphylococcus aureus 212014 clinical isolate after 20 to 24 hrs by two-fold microdilution method; type: functional
Staphylococcus aureus [23] = test: Antibacterial activity against methicillin-resistant Staphylococcus aureus 109244 clinical isolate after 20 to 24 hrs by two-fold microdilution method; type: functional
Staphylococcus aureus [24] = test: Antibacterial activity against methicillin-resistant Staphylococcus aureus 110325 clinical isolate after 20 to 24 hrs by two-fold microdilution method; type: functional
Staphylococcus aureus [25] = test: Antibacterial activity against methicillin-resistant Staphylococcus aureus 110414 clinical isolate after 20 to 24 hrs by two-fold microdilution method; type: functional
Staphylococcus aureus [26] = test: Antibacterial activity against methicillin-resistant Staphylococcus aureus 414244 clinical isolate after 20 to 24 hrs by two-fold microdilution method; type: functional
Staphylococcus aureus [27] = test: Antibacterial activity against methicillin-resistant Staphylococcus aureus 1012039 clinical isolate after 20 to 24 hrs by two-fold microdilution method; type: functional
Staphylococcus aureus [28] = test: Antibacterial activity against methicillin-resistant Staphylococcus aureus 1211026 clinical isolate after 20 to 24 hrs by two-fold microdilution method; type: functional
[29] = Solubility of the compound in water at 25 degC measured after shaking for 4 hrs by UV method; type: physicochemical; details: buffer, 4 h
Staphylococcus aureus [30] = test: Antibacterial activity against methicillin-resistant Staphylococcus aureus 1025022 clinical isolate after 20 to 24 hrs by two-fold microdilution method; type: functional
Staphylococcus aureus [31] = test: Antibacterial activity against methicillin-resistant Staphylococcus aureus 11703 clinical isolate after 20 to 24 hrs by two-fold microdilution method; type: functional
Staphylococcus aureus [32] = test: Antibacterial activity against methicillin-resistant Staphylococcus aureus 523005 clinical isolate after 20 to 24 hrs by two-fold microdilution method; type: functional
Staphylococcus aureus [33] = test: Antibacterial activity against methicillin-resistant Staphylococcus aureus 503025 clinical isolate after 20 to 24 hrs by two-fold microdilution method; type: functional
Staphylococcus aureus [34] = test: Antibacterial activity against methicillin-resistant Staphylococcus aureus 214026 clinical isolate after 20 to 24 hrs by two-fold microdilution method; type: functional
Staphylococcus aureus [35] = test: Antibacterial activity against methicillin-resistant Staphylococcus aureus 224001 clinical isolate after 20 to 24 hrs by two-fold microdilution method; type: functional
Staphylococcus aureus [36] = test: Antibacterial activity against methicillin-resistant Staphylococcus aureus 216054 clinical isolate after 20 to 24 hrs by two-fold microdilution method; type: functional
Staphylococcus aureus [37] = test: Antibacterial activity against methicillin-resistant Staphylococcus aureus 3250299 clinical isolate after 20 to 24 hrs by two-fold microdilution method; type: functional
Staphylococcus aureus [38] = test: Antibacterial activity against methicillin-resistant Staphylococcus aureus 1029025 clinical isolate after 20 to 24 hrs by two-fold microdilution method; type: functional
Staphylococcus aureus [39] = test: Antibacterial activity against methicillin-resistant Staphylococcus aureus 20534 clinical isolate after 20 to 24 hrs by two-fold microdilution method; type: functional
Staphylococcus aureus [40] = test: Antibacterial activity against methicillin-resistant Staphylococcus aureus 121026 clinical isolate after 20 to 24 hrs by two-fold microdilution method; type: functional
Staphylococcus aureus [41] = test: Antibacterial activity against methicillin-resistant Staphylococcus aureus 1212057-1 clinical isolate after 20 to 24 hrs by two-fold microdilution method; type: functional
Staphylococcus aureus [42] = test: Antibacterial activity against methicillin-resistant Staphylococcus aureus 112430 clinical isolate after 20 to 24 hrs by two-fold microdilution method; type: functional
Staphylococcus aureus [43] = test: Antibacterial activity against methicillin-resistant Staphylococcus aureus 625032 clinical isolate after 20 to 24 hrs by two-fold microdilution method; type: functional
Staphylococcus aureus [44] = test: Antibacterial activity against methicillin-resistant Staphylococcus aureus 519030 clinical isolate after 20 to 24 hrs by two-fold microdilution method; type: functional
Escherichia coli = test: Antibacterial activity against Escherichia coli ATCC 25922 after 20 to 24 hrs by two-fold microdilution method; type: functional
Staphylococcus aureus [45] = test: Antibacterial activity against methicillin-resistant Staphylococcus aureus 531220 clinical isolate after 20 to 24 hrs by two-fold microdilution method; type: functional
Staphylococcus aureus [46] = test: Antibacterial activity against methicillin-resistant Staphylococcus aureus 1207026 clinical isolate after 20 to 24 hrs by two-fold microdilution method; type: functional

## O=C1c2cccnc2C(=O)c2c1c(C(=O)OCCCCCCN1CCOCC1)c1ccc(Br)cn21
Staphylococcus aureus [1]
  MIC: ≤ 7.8 ng/mL
Staphylococcus aureus [2]
  MIC: ≤ 7.8 ng/mL
Staphylococcus aureus [3]
  MIC: ≤ 7.8 ng/mL
Staphylococcus aureus [4]
  MIC: ≤ 7.8 ng/mL
Staphylococcus aureus [5]
  MIC: ≤ 7.8 ng/mL
Staphylococcus aureus [6]
  MIC: ≤ 7.8 ng/mL
Staphylococcus aureus [7]
  MIC: ≤ 7.8 ng/mL
Staphylococcus aureus [8]
  MIC: ≤ 7.8 ng/mL
Staphylococcus aureus [9]
  MIC: > 16000 ng/mL
Staphylococcus aureus [10]
  MIC: 16000 ng/mL (≈ 29.6 µM)
Staphylococcus aureus [11]
  MIC: ≤ 7.8 ng/mL
Staphylococcus aureus [12]
  MIC: ≤ 7.8 ng/mL
Staphylococcus aureus [13]
  MIC: ≤ 7.8 ng/mL
Staphylococcus aureus [14]
  MIC: ≤ 7.8 ng/mL
Staphylococcus aureus [15]
  MIC: ≤ 7.8 ng/mL
Staphylococcus aureus [16]
  MIC: ≤ 7.8 ng/mL
Staphylococcus aureus [17]
  MIC: ≤ 7.8 ng/mL
Staphylococcus aureus [18]
  MIC: ≤ 7.8 ng/mL
Staphylococcus aureus [19]
  MIC: ≤ 7.8 ng/mL
Staphylococcus aureus [20]
  MIC: ≤ 7.8 ng/mL
Staphylococcus aureus [21]
  MIC: ≤ 7.8 ng/mL
Staphylococcus aureus [22]
  MIC: ≤ 7.8 ng/mL
Staphylococcus aureus [23]
  MIC: ≤ 7.8 ng/mL
Staphylococcus aureus [24]
  MIC: ≤ 7.8 ng/mL
Staphylococcus aureus [25]
  MIC: ≤ 7.8 ng/mL
Staphylococcus aureus [26]
  MIC: ≤ 7.8 ng/mL
Staphylococcus aureus [27]
  MIC: ≤ 7.8 ng/mL
Staphylococcus aureus [28]
  MIC: ≤ 7.8 ng/mL
[29]
  solubility: Insoluble
Staphylococcus aureus [30]
  MIC: ≤ 7.8 ng/mL
Staphylococcus aureus [31]
  MIC: ≤ 7.8 ng/mL
Staphylococcus aureus [32]
  MIC: ≤ 7.8 ng/mL
Staphylococcus aureus [33]
  MIC: ≤ 7.8 ng/mL
Staphylococcus aureus [34]
  MIC: ≤ 7.8 ng/mL
Staphylococcus aureus [35]
  MIC: ≤ 7.8 ng/mL
Staphylococcus aureus [36]
  MIC: ≤ 7.8 ng/mL
Staphylococcus aureus [37]
  MIC: ≤ 7.8 ng/mL
Staphylococcus aureus [38]
  MIC: ≤ 7.8 ng/mL
Staphylococcus aureus [39]
  MIC: ≤ 7.8 ng/mL
Staphylococcus aureus [40]
  MIC: ≤ 7.8 ng/mL
Staphylococcus aureus [41]
  MIC: ≤ 7.8 ng/mL
Staphylococcus aureus [42]
  MIC: ≤ 7.8 ng/mL
Staphylococcus aureus [43]
  MIC: ≤ 7.8 ng/mL
Staphylococcus aureus [44]
  MIC: ≤ 7.8 ng/mL
Escherichia coli
  MIC: 8000 ng/mL (≈ 14.8 µM)
Staphylococcus aureus [45]
  MIC: ≤ 7.8 ng/mL
Staphylococcus aureus [46]
  MIC: ≤ 7.8 ng/mL
